Laboratory results as given in patent US10526322B2, “Inhibitors of kidney-type glutaminase, GLS-1” (CORNELL UNIVERSITY, priority 2014, dated 2020).

Legend:
[1] = biological target: T1, monomeric GAC (D391K, K316E, R459E) (Mus musculus, UniProt D3Z7P3, D391K/K316E/R459E); test: 968 binding to GAC mutants, quenching of 488 fluorescence; details: 10 nM total monomer
T1 construct: (residues 72-603) was cloned into a pET23a vector; His-tag with thrombin cleavage site (N); made in house
T1 sequence (D3Z7P3 72-603 isoform D3Z7P3-2 K316E/D391K/R459E): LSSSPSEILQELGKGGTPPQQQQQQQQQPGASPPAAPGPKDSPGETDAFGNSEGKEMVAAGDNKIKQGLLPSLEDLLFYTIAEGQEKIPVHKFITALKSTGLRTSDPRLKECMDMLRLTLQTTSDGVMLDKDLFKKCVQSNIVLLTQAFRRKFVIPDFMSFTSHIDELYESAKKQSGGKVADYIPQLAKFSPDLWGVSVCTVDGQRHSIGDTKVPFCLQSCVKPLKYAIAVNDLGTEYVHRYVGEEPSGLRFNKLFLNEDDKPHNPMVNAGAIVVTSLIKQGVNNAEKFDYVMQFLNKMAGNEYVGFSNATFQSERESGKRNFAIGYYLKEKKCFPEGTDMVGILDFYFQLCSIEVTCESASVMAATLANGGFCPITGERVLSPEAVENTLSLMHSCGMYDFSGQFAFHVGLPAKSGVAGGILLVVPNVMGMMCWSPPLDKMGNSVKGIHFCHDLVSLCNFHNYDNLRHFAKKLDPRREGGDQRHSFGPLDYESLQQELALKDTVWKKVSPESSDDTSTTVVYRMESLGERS
Description: Real-time fluorescence monitoring of 968 binding and GAC activity through production of NADH was performed on a Varian Cary Eclipse Fluorometer, whereas small molecule inhibition and binding titrations were performed in a 96-well format in a Tecan Saphire absorbance and fluorescence plate reader. Samples for monitoring real-time binding of 968 to 488-GAC were prepared by adding 10 μL of varying concentrations of 968 prepared in DMSO to an equilibrated 1 mL sample of 10 nM 488-GAC, while observing 488 fluorescence (490 nm excitation/520 nm emission). […] WT GAC (10 nM) was added and allowed to equilibrate 2 minutes before monitoring the fluorescence emission of 488-GAC (490 nm excitation, 520 nm emission) and NADH (340 nm excitation, 490 nm emission). […] The activity of GAC was measured in a coupled assay, by monitoring the NADH produced by glutamate dehydrogenase, which converts the product of the glutaminase-catalyzed reaction, glutamate, to α-ketoglutarate and ammonia by reducing NAD+ to NADH. Because solutions containing glutamine undergo non-enzymatic degradation to glutamate, samples were further analyzed by […] under identical experimental conditions. […]

[2] = biological target: T2, K316E/D391K/R459E GAC mutant (Mus musculus, UniProt D3Z7P3, D391K/K316E/R459E); test: In vitro photo cross linking of SU-22 and purification of the conjugate; assay type: binding
T2 construct: (residues 72-603) was cloned into a pET23a vector; made in house
T2 sequence (D3Z7P3 72-603 isoform D3Z7P3-2 K316E/D391K/R459E): T1 sequence (D3Z7P3 72-603 isoform D3Z7P3-2 K316E/D391K/R459E)
Description: Glutaminase proteins of the WT sequence, or containing the mutations D391K alone, or the mutations K316E/D391K/R459E, were purified as detailed in Example 3 supra. These glutaminase proteins were incubated with increasing concentrations of the compound SU-22, and excited with a hand held UV lamp for 120 seconds. Immediately following UV exposure, samples were loaded onto a 4-20% Tris-Glycine polyacrylamide gel after the addition of SDS-PAGE sample buffer (50 mM Tris-HCl (pH=6.8), 2% SDS, 10% glycerol, 1% β-mercaptoethanol, 12.5 mM EDTA, 0.02% bromophenol blue), and visualized on a UV light box.
Conditions of in vitro cross linking of WT GAC, and the K316E/D391K/R459E GAC mutant were adapted for efficient cross linking and purification of the cross linked protein product. WT GAC and the K316E/D391K/R459E GAC mutant, both containing the N-terminal His-tag, were diluted to a concentration of 100 nM in 20 mM Tris-HCl (pH=8.6) 100 mM NaCl, upon which 10 μM of SU-22 was added. […] The purified cross linked protein was then concentrated using spin columns with a 30 kD molecular weight cutoff and quantified using UV-vis spectroscopy, where the protein was quantified using the A280 (ε280=38,850 M−1 cm−1) and the cross-linked SU-22 using the A350 (ε350=18,900 M−1 cm−1). […]

Row | Structure (SMILES) | affinity for 968 compared with WT 488-GAC and dimeric GAC (D391K) [1] | ratio of cross linked SU-22 to protein ([2]; 100 nM K316E/D391K/R459E GAC, 10 μM SU-22, UV, A350/A280) | efficiency of cross linking compared with dimer (D391K) or WT GAC ([2]; UV exposure, SDS-PAGE)
1 | CN(C)c1ccc(C2Nc3ccc4ccccc4c3C3=C2C(=O)CC(C)(C)C3)cc1Br (stereo not drawn) [Compound 968] | highest affinity |  | 
2 | CC1(C)CC(=O)C2=C(C1)c1c(ccc3cc4ccccc4cc13)NC2c1ccc(N=[N+]=[N-])cc1 (stereo not drawn) [SU-22] |  | 0.78 | more efficient
